Experimental data from patent EP4596537A1, “NOVEL FLUORENE DERIVATIVE COMPOUND AND USE THEREOF” (JD Bioscience Inc., priority 2022, dated 2024).

The compounds below were run on PDHE1α S293 (assay: In vitro PDH S293 phosphorylation inhibition (Western blot) in HEK293 cells). Conditions: Homo sapiens, 5 hours.
Assay type: cell-based, human
Experimental: HEK293 cells, which are human embryonic kidney cells, were seeded at a density of 2 × 10^6 in a 60 mm dish, and cultured for 24 hours. After replacing the medium with a medium comprising 0.5% FBS, the compounds prepared according to Examples 1 to 54 were treated at various concentrations. 5 hours later, the cells were scraped off and collected into a 15 mL conical tube and centrifuged at 1500 rpm for 10 minutes. The supernatant was discarded, the resultant was washed with 1× PBS, and transferred to a 1.5 mL e-tube, followed by centrifugation at 10,000 rpm for 5 minutes. The supernatant was discarded again, a lysis buffer was added, and the cells were lysed on ice for 30 minutes. The cells were vortexed every 10 minutes to completely lyse, and centrifuged again at 10,000 rpm for 15 minutes at 4°C, and the supernatant was collected. The protein in the supernatant was quantified using BCA technique, and the sample buffer was added to 20 µg of protein and allowed to react at 70°C for 5 minutes. The expression of PDHE1α S232, S293, S300, and total PDHE1α proteins was detected by Western blot, and the resulting PDH S293 phosphorylation inhibition is shown in Table 6. […]
CC(C(=O)NNc1cccnc1)n1cc(-c2cc(F)cc3c2-c2ccccc2C3(O)C(F)(F)F)cn1 (stereo not drawn) [Example 30, 2-(4-(2-fluoro-9-hydroxy-9-(trifluoromethyl)-9H-fluoren-4-yl)-1H-pyrazol-1-yl)-N'-(pyridin-3-yl)propanehydrazide] was tested, and the inhibition at 1 µM was no less than 50%.
In the case of COc1cc(-c2cnn(C(C)C(=O)NNc3cccnc3)c2)c2c(c1)C(O)(C(F)(F)F)c1ccccc1-2 (stereo not drawn) [Example 31, 2-(4-(9-hydroxy-2-methoxy-9-(trifluoromethyl)-9H-fluoren-4-yl)-1H-pyrazol-1-yl)-N'-(pyridin-3-yl)propanehydrazide], the inhibition at 1 µM is reported as no less than 50%.
CC(C(=O)NNc1ccncc1)n1cc(-c2cc(F)cc3c2-c2ccccc2C3(O)C(F)(F)F)cn1 (stereo not drawn) [Example 34, 2-(4-(2-fluoro-9-hydroxy-9-(trifluoromethyl)-9H-fluoren-4-yl)-1H-pyrazol-1-yl)-N'-(pyridin-4-yl)propanehydrazide] showed an inhibition at 1 µM of no less than 50%.
For CC(C(=O)NNc1ncnc2ccccc12)n1cc(-c2cc(F)cc3c2-c2ccccc2C3(O)C(F)(F)F)cn1 (stereo not drawn) [Example 35, 2-(4-(2-fluoro-9-hydroxy-9-(trifluoromethyl)-9H-fluoren-4-yl)-1H-pyrazol-1-yl)-N'-(quinazolin-4-yl)propanehydrazide], the inhibition at 1 µM was no less than 50%.
With CC(C(=O)NNc1ccnc2ccccc12)n1cc(-c2cc(F)cc3c2-c2ccccc2C3(O)C(F)(F)F)cn1 (stereo not drawn) [Example 36, 2-(4-(2-fluoro-9-hydroxy-9-(trifluoromethyl)-9H-fluoren-4-yl)-1H-pyrazol-1-yl)-N'-(quinolin-4-yl)propanehydrazide] the inhibition at 1 µM was no less than 50%.
CC(C(=O)NNc1cnc2ccccc2n1)n1cc(-c2cc(F)cc3c2-c2ccccc2C3(O)C(F)(F)F)cn1 (stereo not drawn) [Example 37, 2-(4-(2-fluoro-9-hydroxy-9-(trifluoromethyl)-9H-fluoren-4-yl)-1H-pyrazol-1-yl)-N'-(quinoxalin-2-yl)propanehydrazide] gave an inhibition at 1 µM of no less than 50%.
Compound CC(C(=O)NNc1cc2ccccc2[nH]c1=O)n1cc(-c2cc(F)cc3c2-c2ccccc2C3(O)C(F)(F)F)cn1 (stereo not drawn) [Example 38, 2-(4-(2-fluoro-9-hydroxy-9-(trifluoromethyl)-9H-fluoren-4-yl)-1H-pyrazol-1-yl)-N'-(2-oxo-1,2-dihydroquinolin-3-yl)propanehydrazide] has an inhibition at 1 µM of no less than 50%.
Compound CC(C(=O)NNc1ccc2ccccc2n1)n1cc(-c2cc(F)cc3c2-c2ccccc2C3(O)C(F)(F)F)cn1 (stereo not drawn) [Example 39, 2-(4-(2-fluoro-9-hydroxy-9-(trifluoromethyl)-9H-fluoren-4-yl)-1H-pyrazol-1-yl)-N'-(quinolin-2-yl)propanehydrazide] has an inhibition at 1 µM of no less than 50%.
CC(C(=O)NNc1cc(=O)n(C)c2ccccc12)n1cc(-c2cc(F)cc3c2-c2ccccc2C3(O)C(F)(F)F)cn1 (stereo not drawn) [Example 40, 2-(4-(2-fluoro-9-hydroxy-9-(trifluoromethyl)-9H-fluoren-4-yl)-1H-pyrazol-1-yl)-N'-(1-methyl-2-oxo-1,2-dihydroquinolin-4-yl)propanehydrazide] was tested, and the inhibition at 1 µM was no less than 50%.
With CC(C(=O)NNc1ccc2nccn2n1)n1cc(-c2cc(F)cc3c2-c2ccccc2C3(O)C(F)(F)F)cn1 (stereo not drawn) [Example 41, 2-(4-(2-fluoro-9-hydroxy-9-(trifluoromethyl)-9H-fluoren-4-yl)-1H-pyrazol-1-yl)-N'-(imidazo[1,2-b]pyridazin-6-yl)propanehydrazide] the inhibition at 1 µM was no less than 50%.
CC(C(=O)NNc1nc2ccccc2s1)n1cc(-c2cc(F)cc3c2-c2ccccc2C3(O)C(F)(F)F)cn1 (stereo not drawn) [Example 42, N'-(benzo[d]thiazol-2-yl)-2-(4-(2-fluoro-9-hydroxy-9-(trifluoromethyl)-9H-fluoren-4-yl)-1H-pyrazol-1-yl)propanehydrazide] gave an inhibition at 1 µM of no less than 50%.
In the case of CCC(C(=O)NNc1ccc(F)cc1)n1cc(-c2cc(F)cc3c2-c2ccccc2C3(O)C(F)(F)F)cn1 (stereo not drawn) [Example 43, 2-(4-(2-fluoro-9-hydroxy-9-(trifluoromethyl)-9H-fluoren-4-yl)-1H-pyrazol-1-yl)-N'-(4-fluorophenyl)butanehydrazide], the inhibition at 1 µM is reported as no less than 50%.
